# Test results as given in PubChem BioAssay AID179 (DTP/NCI, 2004).
# Values joined by “and” are separate entries in the source; they are usually repeats but may differ in a detail not shown here. Equal values may be shown once. Active and inactive are the calls of the source.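 The calls were made as follows: active = compounds giving half or more protection of infected cells from virus-caused growth loss, again on retest; inactive = the rest.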 Where a SMILES comes first, the peptide text is derived from it. [ ]: non-standard residue; d: D form. The star is where a group is joined. Fmoc = O=C(OCC1c2ccccc2-c2ccccc21)*; NMeF = CN[CH](Cc1ccccc1)C(=O)O; NMeV = CN[CH](C(=O)O)C(C)C; Boc = CC(C)(C)OC(=O)*
# Test system: CEM cells HIV-1 protection, formazan growth assay
# Test: NCI AIDS Antiviral Assay
# Conditions: for IC50: measured here: growth of uninfected CEM cells
# How it was run: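 Five concentrations of each compound were applied to infected and uninfected human CEM cells. Protection from HIV-1 was judged from growth measured with a soluble formazan assay.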
SMILES,EC50 [µM],IC50,outcome
COC(=O)C1(Cc2ccccc2)Cc2cc3c(cc2C1O)CCC3 (stereo not drawn),> 200,24 µM,
CCOC(=O)C1C2CCC(C2)C1(CCl)C(=O)OCC (stereo not drawn),> 251,> 251 µM,
O=[N+]([O-])c1cccc(C2c3ccccc3Oc3ccccc32)c1,> 200,19.1 µM,
C/C(CN1C(=O)c2ccccc2C1=O)=N\NS(=O)(=O)c1ccccc1,> 20.4,> 20.4 µM,
CC(C)C(NC(=O)OC(C)(C)C)C(=O)N(C)C(Cc1ccccc1)C(=O)N(C)C(C(=O)N(C)C(C(=O)O)C(C)C)C(C)C (stereo not drawn) (Boc-V[NMeF][NMeV][NMeV]-OH; configuration not given here),> 200,> 200 µM,
CCCCCCCCCCCC1=C(O)C(N[C@@H]2CCCCC2N)=CC(=O)C1=O (stereo partly drawn),> 3.72,> 3.72 µM,
COc1ccc(-c2n[nH]c3nc4ccccc4n3c2=O)cc1,> 200,> 200 µM,
N#Cc1ccccc1/C=N/O,> 35.5,> 35.5 µM,
Cc1cc(NC(=O)Nc2ccc(F)cc2)no1,> 200,> 200 µM,
O=C1Sc2ccccc2Cn2cccc21,186,> 200 µM,
CC(C)(O)[C@@H]1CC[C@@]2(C)CCC[C@H](O)[C@H]2C1,,,inactive
CCCCC1C=Cn2c(=O)oc3c(OC(C)C)c(OC(C)C)c(O)c1c32 (stereo not drawn),> 200,13.2 µM,
CO[C@H]1O[C@@H]2OC3(C)CCC4[C@H](C)CCC([C@H]1C)[C@]42OO3 (stereo partly drawn),> 200,112 µM,
CC1(C)O[C@@H]([C@H](O)CO)[C@H](O)[C@@H](C2SCCCS2)O1,> 200,> 200 µM,
COc1cc2c(cc1OC)C(Cc1ccc(OC)c(Oc3ccc(C[C@@H]4c5cc(OC)c(OC)cc5CCN4C)cc3)c1)N(C)CC2 (stereo partly drawn),,,inactive
CC1(C)OC2CC3COC(=O)C3CC2O1 (stereo not drawn),> 1170,> 1170 µM,
C/C=C(/CCCCCOCOCCOC)[Si](C)(C)C,> 324,> 324 µM,
COC(=O)C1=CN(C2CCCCC2)C2(c3ccccc3)c3ccccc3C(=O)OC(=O)C12 (stereo not drawn),132,> 200 µM,
CCOC(=O)/C(=N/Nc1ccc(Cl)cc1)N1C(=S)C=C(C)NN(C)C1=S,> 200,> 200 µM,
O=C(O)[C@H]1CCCN1C(=O)c1ccccc1SSc1ccccc1C(=O)N1CCC[C@H]1C(=O)O,> 200,> 200 µM,
C[CH2][Sn]([CH2]C)([S]CCS(=O)(=O)O)[S]CCS(=O)(=O)O (tested in a mixture with another compound),> 200,3.16 µM,
CCCCCN(CCCCC)c1ccc(/C=C/c2ccnc3ccccc23)cc1,> 67.6,> 67.6 µM,

SMILES,EC50 [µM],IC50,outcome
COc1cc(NC=O)c(OC)cc1Cl,,,inactive
O=C(O)c1ccc([N+](=O)[O-])c2cc3cnccc3nc12,> 200,2.88 µM,
CC(CO)(CO)N1C(=O)C2C3c4ccccc4C(c4ccccc43)C2C1=O (stereo not drawn),> 200,> 200 µM,
Cc1ccc([P+](Cc2ccccc2)(c2ccccc2)c2cccc3ccccc23)cc1 (stereo not drawn),> 200,0.55 µM,
COc1ccc2c(c1)CCC/C2=N\NS(=O)(=O)c1c(C)cc(C)cc1C,> 200,33.1 µM,
CC1=N/C(=C\c2ccccc2F)C(=O)O1,> 631,> 631 µM,
O=[N+]([O-])c1ccc(Cl)c(SSc2cc([N+](=O)[O-])ccc2Cl)c1,> 39.8,14.1 µM,
c1cc2c(cnc3cscc32)s1,,,inactive
COc1cc(Nc2nc3c(N)cc(C(F)(F)F)cc3nc2-c2ccccc2)cc(OC)c1OC,> 15.1,> 15.1 µM,
CN1C(=O)[C@@H]2[C@@H]3c4ccccc4N[C@@H]3c3[nH]c4ccccc4c3[C@@H]2C1=O,> 200,81.3 µM,
O=C1O[C@H](C(Cl)(Cl)Cl)N2CCCC12 (stereo partly drawn),> 204,> 204 µM,
N/N=C1\C(=O)N(Cc2ccccc2)C(=O)C1C(=O)NCc1ccccc1 (stereo not drawn),> 7.76,> 7.76 µM,
COc1cc2ccc3c4cc(OC)c(OCc5ccccc5)cc4cnc3c2cc1OC,,,inactive
CC1(C)CC(=O)C2=C(C1)NC1=C(C2)C(=O)CC(C)(C)C1,> 200,> 200 µM,
C/C=C(\C1CC2c3[nH]c4ccccc4c3CCN2C(=O)C1C(=O)OCC)[Si](C)(C)C (stereo not drawn),> 12.3,> 12.3 µM,
COC(=O)CC(=O)Nc1sccc1S(=O)(=O)c1ccccc1,> 200,102 µM,
CC(C)OP(=O)(CCC(=O)C1(O)CCC2C3CCC4=CC(=O)CCC4(C)C3CCC21C)OC(C)C (stereo not drawn),> 200,32.4 µM,
N/C(=N/N=C\c1nccc2ccccc12)NO,,,inactive
O=c1oc2ccccc2c(O)c1C(C/C(=N/O)c1ccccc1)c1ccccc1 (stereo not drawn),> 200,70.8 µM,
Cc1cc2c(=O)cc(-c3ccccc3Cl)oc2c(C(=O)O)c1C,> 200,> 200 µM,
CC(C)OP(=O)(OC(C)C)/C(C#N)=C/c1ccco1,> 200,> 200 µM,
CC(=O)OCC1OC(n2c(=O)n(-c3ccccc3)c(=O)c3cc(Br)cc(Br)c32)C(OC(C)=O)C(OC(C)=O)C1OC(C)=O (stereo not drawn),> 13.8,> 13.8 µM,

SMILES,EC50 [µM],IC50,outcome
c1nncn1C12C3C4C5C3C1C5C42 (stereo not drawn),> 200,> 200 µM,
CS(=O)(=O)OCC1OC(n2ccc(NC(=O)c3ccccc3)nc2=O)CC1OS(C)(=O)=O (stereo not drawn),> 200,> 200 µM,
CC(=O)OCC1OC(n2c(-c3ccccc3)c(C(C)=O)c(-c3cccc4ccccc34)c(C#N)c2=S)C(OC(C)=O)C(OC(C)=O)C1OC(C)=O (stereo not drawn),> 200,85.1 µM and 117 µM,
CCN1C[C@]2(COC(=O)c3ccccc3N3C(=O)CC(C)C3=O)CCC(OC)C34[C@@H]5C[C@@H]6C(OC)[C@@H]5[C@](O)(C[C@@H]6OC)[C@@](O)([C@H]13)[C@@H](OC)[C@@H]42 (stereo partly drawn),,,inactive
O=C(c1ccc(Cl)cc1)c1ccc(OCCCCCCCCCCOc2ccc(C(=O)c3ccc(Cl)cc3)cc2)cc1,> 16.6,> 16.6 µM,
CC1CN=C(Nc2cccc(C(F)(F)F)c2)S1 (stereo not drawn),> 200,57.5 µM,
O=C(Nc1sccc1S(=O)(=O)c1ccccc1)c1ccccc1,> 20,11.7 µM,
C[C@H](CCCN1CCCCC1)[C@H]1CC[C@H]2[C@@H]3CC[C@@H]4C[C@H](O)CC[C@]4(C)[C@H]3CC[C@]12C,> 50.1,1.82 µM,
O=c1c2ccc(Cl)cc2oc2ccc(Cl)cc12,> 26.9,> 26.9 µM,
CC(C)(C)OC(=O)NCCCCC(NC(=O)C(Cc1c[nH]c2ccccc12)NC(=O)OCC1c2ccccc2-c2ccccc21)C(=O)O (stereo not drawn) (Fmoc-Trp-Lys(Boc)-OH; configuration not given here),> 200,102 µM,
CCOC(=O)c1c(C)[nH]c(=S)c(C#N)c1-c1ccc(Cl)cc1,> 200,43.7 µM,
N#CC(C(=O)C(=O)Nc1c(Cl)cccc1Cl)c1ccccc1 (stereo not drawn),,,inactive
CC(C)(C)/C(O)=C\c1nc2cc(F)c(F)cc2[nH]c1=O,> 200,182 µM,
N#C/C(=C/C=C/c1ccco1)C(N)=O,> 200,> 200 µM,
CC(C)NC1CCCCC2c3ccccc3C12O (stereo not drawn),145,> 200 µM,
[N-]=[N+]=Nc1ccc2c(c1)Sc1ccccc1N2CCCCN1CCN(Cc2ccc(C(=O)c3ccccc3)cc2)CC1,> 100,6.03 µM,
NNC(=O)Cn1c2ccc(Br)cc2c2nc3ccccc3nc21,> 200,28.2 µM,
O=C1C=C(Nc2ccccc2)c2ccccc2C1=O,> 11,> 11 µM,
NC(=O)CNC(=O)c1ccccc1SC(=O)NCCBr,2,10 µM,
COC(=O)C(CCCN1C(=O)c2ccccc2C1=O)C(=O)OC,,,inactive
Cc1ccc(-c2nnc(-c3nn(-c4ccccc4)c4nc5ccccc5nc34)o2)cc1,,,inactive
C=C1CN2CCc3c([nH]c4ccccc34)C2CC1CC(=O)N(C)C (stereo not drawn),> 562,468 µM,

SMILES,EC50 [µM],IC50,outcome
O=C(Nn1c(-c2ccccc2)nc2ccccc2c1=O)c1ccc([N+](=O)[O-])cc1,> 200,> 200 µM,
c1ccc2c3c([nH]c2c1)CCc1cncnc1-3,> 200,12 µM,
COc1ccc(C=C2C(=O)OC(C)(C)OC2=O)cc1,> 501,151 µM,
O=C1N[C@H]2CCCC[C@@H]2C(=O)N1OS(=O)(=O)c1ccccc1,> 200,> 200 µM,
Cc1ncc([N+](=O)[O-])n1CCN(C)C(=O)CCCn1ccnc1[N+](=O)[O-],> 200,> 200 µM,
Cc1ccc(Cc2nn(C)c(=O)n2N)cc1,,,inactive
COc1cc([C@@H]2c3cc4c(c(O)c3C[C@H]3COC(=O)[C@@H]32)OCO4)cc(OC)c1O,> 3.24,0.00174 µM,
S=C1Cc2[nH]c(=S)sc(=S)c2C(=S)N1,> 64.6,57.5 µM,
Cc1nc2cc(N)c(F)cc2[nH]1,> 537,> 537 µM,
CC(CCCOC(c1ccccc1)(c1ccccc1)c1ccccc1)OC(=O)Nc1ccccc1 (stereo not drawn),> 28.8,> 28.8 µM,
O=C(NC1CCCCC1)/C(=C\c1ccccc1)NC(=O)c1ccccc1,> 200,> 200 µM,
CC(C)=CCC[C@@H](C)C1=C(O)C(Nc2ccccc2Cl)=C(C)C(=O)C1=O,> 200,6.31 µM,
Oc1c2c(c(O)c3ccccc13)=N[C@@H](c1ccccc1)[C@H](c1ccccc1)N=2,,,inactive
C[C@@H](NC(=O)[C@@H]1C[C@]1(C)COC(=O)c1cc([N+](=O)[O-])cc([N+](=O)[O-])c1)c1cccc2ccccc12,> 200,115 µM,
O=C1C/C(=C\c2ccccc2)C(=O)c2ccccc2N1,> 200,12.6 µM,
CC1(c2ccc(F)cc2)C(C#N)C(=O)NC(=O)C1C#N (stereo not drawn),> 912,170 µM,
c1ccc(OCCSCCCCCCCCCCSCCOc2ccccc2)cc1,> 8.51,> 8.51 µM,
CN1CC(O)C(C(=O)NC23CC4CC(CC(C4)C2)C3)C1 (stereo not drawn),> 324,234 µM,
COC(=O)c1cc2c(C(=O)OC)cc1CSCc1cccc(c1)CSC2,> 200,> 200 µM,
